Columns and labels:
[1] = test system: Mouse embryonic fibroblasts (MEFs); experiment: iPS cell establishment from Nanog-GFP reporter MEFs, 4 genes (Oct3/4, Sox2, Klf4, c-Myc) introduced, with p38 inhibitors; assay type: cell-based
Experimental: Mouse embryonic fibroblasts (MEFs) from a Nanog reporter mouse carrying Nanog-GFP—IRES-Puro^r [Okita K. et al, Nature 448, 313-317 (2007)] were transfected with four genes using a retrovirus to induce iPS cells.
Each retrovirus for reprogramming was prepared by transferring each of retroviral expression vectors (pMXs-Oct3/4, pMXs-Sox2, pMXs-Klf4, pMXs-cMyc:Cell, 126, 663-676 (2006)) to Plat-E cells (Morita, S. et al., Gene Ther. 7, 1063-1066) that had been seeded to a 6-well culture plate (Falcon) at 0.6×10^6 cells per well on the day before. The cells were cultured at 37° C. in the presence of 5% CO2 using DMEM/10% FCS [a culture broth prepared by adding 10% fetal calf serum to DMEM (Nacalai Tesque)]. To facilitate vector transfer, 4.5 μL of FuGene6 transfection reagent (Roche) was placed in 100 μL of Opti-MEM I Reduced-Serum Medium (Invitrogen), and the medium was allowed to stand at room temperature for 5 minutes. Subsequently, 1.5 μg of each expression vector was added, and the medium was allowed to further stand at room temperature for 15 minutes, after which they were added to the Plat-E culture broth. On day 2, the Plat-E supernatant was replaced with a fresh supply of the medium. On day 3, the culture supernatant was recovered and filtered through a 0.45 μm sterile filter (Whatman), and polybrene (Nacalai) was added at 4 μg/mL to yield a viral liquid.
Mouse embryonic fibroblasts (MEFs) were isolated from a fetal Nanog reporter mouse (13.5 days after fertilization). […] Not expressing the puromycin resistance gene as well, MEFs are susceptible to the antibiotic puromycin. As such, MEFs were seeded to a 6-well culture plate (Falcon), previously coated with 0.1% gelatin (Sigma), at 1.0×10^5 cells per well. DMEM/10% FCS served as the culture broth at 37° C. in the presence of 5% CO2. The following day, each retrovirus liquid was added, and this was followed by overnight infection to introduce the genes.
On day 1 after the viral infection, the medium for the MEFs was removed, and the cells were washed by the addition of 1 mL of PBS. After removing the PBS, 0.25% Trypsin/1 mM EDTA (Invitrogen) was added, and a reaction was carried out at 37° C. for about 5 minutes. After the cells floated up, the cells were suspended by the addition of an ES cell culture medium and 2500 cells were seeded to a 100 mm dish having mitomycin C-treated STO feeder cells seeded thereto previously. Cultivation was continued while replacing the ES cell culture medium with a fresh supply of the same medium every two days until a visible colony emerged.
To determine the effects of p38 inhibitors on the establishment of iPS cells by the introduction of the four mouse genes, cultivation was continued with the addition of 10 μM of the p38 inhibitor 5B202190, SB239063, or SB203580 (Calbiochem Company) to the medium per the schedule shown below. All these inhibitors were used in solution in DMSO. • 1. Oct3/4, Sox2, Klf4, c-Myc, each derived from mouse, saline • 2. Oct3/4, Sox2, Klf4, c-Myc, each derived from mouse, DMSO • 3. Oct3/4, Sox2, Klf4, c-Myc, each derived from mouse, SB202190 10 μM Day 1-4) • 4. Oct3/4, Sox2, Klf4, c-Myc, each derived from mouse, SB202190 10 μM (Day 1-8) • 5. Oct3/4, Sox2, Klf4, c-Myc, each derived from mouse, SB202190 10 μM (Day 9-16) • 6. Oct3/4, Sox2, Klf4, c-Myc, each derived from mouse, SB202190 10 μM (Day 1-16) • 7. Oct3/4, Sox2, Klf4, c-Myc, each derived from mouse, SB239063 10 μM (Day 1-4) • 8. Oct3/4, Sox2, Klf4, c-Myc, each derived from mouse, SB239063 10 μM (Day 1-8) • 9. Oct3/4, Sox2, Klf4, c-Myc, each derived from mouse, SB239063 10 μM (Day 9-16) • 10. Oct3/4, Sox2, Klf4, c-Myc, each derived from mouse, SB239063 10 μM (Day 1-16) • 11. Oct3/4, Sox2, Klf4, c-Myc, each derived from mouse, SB203580 10 μM (Day 1-4) • 12. Oct3/4, Sox2, Klf4, c-Myc, each derived from mouse, SB203580 10 μM (Day 1-8) • 13. Oct3/4, Sox2, Klf4, c-Myc, each derived from mouse, SB203580 10 μM (Day 9-16) • 14. […]

[2] = test system: Mouse embryonic fibroblasts (MEFs); experiment: iPS cell establishment from MEFs, 3 genes (Oct3/4, Sox2, Klf4) introduced, with p38 inhibitors; assay type: cell-based; details: 10 μM inhibitor added in the initial stage after the infection
Experimental: Three genes were introduced using a retrovirus by the same experimental procedures as the above. The cells were cultured at a cell density of 2×10^4 cells/10 cm dish, with the addition of 10 μM of SB202190, SB239063, or SB203580 (Calbiochem Company) to the medium per the schedule shown below, and the establishment efficiency was compared. • 1. Oct3/4, Sox2, Klf4, each derived from mouse, saline • 2. Oct3/4, Sox2, Klf4, each derived from mouse, DMSO • 3. Oct3/4, Sox2, Klf4, each derived from mouse, SB202190 10 μM (Day 1-4) • 4. Oct3/4, Sox2, Klf4, each derived from mouse, SB202190 10 μM (Day 1-8) • 5. Oct3/4, Sox2, Klf4, each derived from mouse, SB202190 10 μM (Day 9-16) • 6. Oct3/4, Sox2, Klf4, each derived from mouse, SB202190 10 μM (Day 1-16) • 7. Oct3/4, Sox2, Klf4, each derived from mouse, SB239063 10 μM (Day 1-4) • 8. Oct3/4, Sox2, Klf4, each derived from mouse, SB239063 10 μM (Day 1-8) • 9. Oct3/4, Sox2, Klf4, each derived from mouse, SB239063 10 μM (Day 9-16) • 10. Oct3/4, Sox2, Klf4, each derived from mouse, SB239063 10 μM (Day 1-16) • 11. Oct3/4, Sox2, Klf4, each derived from mouse, SB203580 10 μM (Day 1-4) • 12. Oct3/4, Sox2, Klf4, each derived from mouse, SB203580 10 μM (Day 1-8) • 13. Oct3/4, Sox2, Klf4, each derived from mouse, SB203580 10 μM (Day 9-16) • 14. Oct3/4, Sox2, Klf4, each derived from mouse, SB203580 10 μM (Day 1-16),

SMILES: C[S+]([O-])c1ccc(-c2nc(-c3ccc(F)cc3)c(-c3ccncc3)[nH]2)cc1 (stereo not drawn) [SB203580, 4-(4-fluorophenyl)-2-(4-methylsulfinylphenyl)-5-(4-pyridyl)-1H-imidazole]
- effect on colony count when measured on day 28 after the infection ([1]; 10 μM inhibitor on days 1 to 4, counted day 28): remarkable
- colony count compared with cells treated with physiological saline or DMSO ([1]; 10 μM inhibitor on days 1 to 4 after the infection, FIG. 1): tended to increase
- number of positive cells compared with DMSO treatment [2]: increased

Reference: US9447408B2, “Method of efficiently establishing induced pluripotent stem cells” (Kyoto University, priority 2010, dated 2016)
